Data on three compounds can be found in patent US10668000B2, “Peptides, compositions comprising them and uses in particular cosmetic uses” (SEDERMA, priority 2014, dated 2020).

The subject of one experiment is collagen. Conditions: cited from earlier work.
The next experiment deals with Collagen IV. The experiment can be described thus: ELISA assay of collagen IV synthesis in normal human fibroblasts. It is filed as cell-based. Conditions: NHF, 72 h. Here is the method:
(§1) Normal human fibroblasts (NHF) in culture are contacted with the products to be tested or their excipient (negative control) for 72 h. After the contact, the culture supernatants are removed and the synthesis of dermal macromolecules are estimated by ELISA assays. An estimation of cell viability is performed by Hoechst assay and used to weight the obtained data.

Another experiment deals with Laminin. The experiment can be described thus: ELISA assay of laminin synthesis in normal human fibroblasts. Conditions: NHF, 72 h. It is filed as cell-based. On the procedure:
as §1

Experiment [1] deals with Collagen I. The experiment can be described thus: Immunofluorescence dosage of collagen I in normal human fibroblasts. It is filed as cell-based. The settings on record: NHF, 6 days. Here is the method:
(§2) Normal human fibroblasts (NHF) are cultured for 24 h. The cells are contacted or not with the products to be tested or their excipient at various concentrations for 6 days for the collagen I or 14 days for elastin (DMEMc 5% FCS). The synthesis of collagen I and elastin produced by the cells in the form of extracellular matrix is then quantified by immuno-marking on the fixed layers. A counting of the nuclei labeled with Hoechst is performed in parallel in order to have an estimate of the viability and in order to weight the data.

Experiment [2] concerns Elastin. The experiment is described as follows: Immunofluorescence dosage of elastin in normal human fibroblasts. In kind it is cell-based. Conditions: NHF, 14 days. On the procedure:
as §2

A further experiment relates to Fibronectin. The experiment is described as follows: ELISA assay of fibronectin synthesis in normal human fibroblasts. It is filed as cell-based. Conditions: NHF, 72 h. On the procedure:
as §1
Background: ELISA stands for enzyme-linked immunosorbent assay.

Experiment [3] concerns Elastin. The experiment can be described thus: ELISA assay of elastin synthesis in normal human fibroblasts. In kind it is cell-based. The settings on record: NHF, 72 h. Here is the method: as §1
For experiment [4], the system named is Collagen I. The experiment can be described thus: ELISA assay of collagen I synthesis in normal human fibroblasts. It is filed as cell-based. Conditions: NHF, 72 h. Here is the method: as §1
The subject of the next experiment is Ceramide 2. The experiment can be described thus: Ceramide 2 immunolabeling in keratinocytes. In kind it is cell-based, human. The settings on record: for Ceramide 2 % variation: immunolabeling, human keratinocytes. An excerpt:
(§3) Human keratinocytes are brought to just confluence in KSFMc medium. The contact with the actives and therefore their evaluation is then done in KSFMc medium alone or with calcium (0.8 mm)*. Visual evaluation of differentiation takes place after several days of contact (2, 4, 8 days/3, 5 and 7 for example). * Calcium differentiation allows the creation of link structure between the cells which leads to a better attachment of the basal layers.
(§4) On the same cultures as those presented before, immunolabeling of filaggrin 1 and ceramides are realised on layers fixed with specific antibodies. Quantification by image analysis is used to estimate the synthesis of these targets in keratinocytes. A counter-colouration of the nucleus using Hoechst dye is used to weight the obtained data.

For the next experiment, the system named is neutral lipids. The experiment can be described thus: Marking of neutral lipids with red oil in keratinocytes. It is filed as cell-based, human. Conditions: for Neutral lipids % variation: red oil marking, human keratinocytes.
Description: as §3
On the same cultures as presented before, a marking of neutral lipids with red oil is realised on the fixed layers. Quantification by image analysis is used to estimate lipid synthesis in keratinocytes. A counter-colouration of the nucleus using Hoechst dye is used to weight the obtained data.

Another experiment concerns filaggrin 1. The experiment can be described thus: Filaggrin 1 immunolabeling in keratinocytes. The settings on record: for Filagrin 1 % variation: immunolabeling, human keratinocytes. It is filed as cell-based, human.
Description: as §3, §4

Where [5] appears, read: at the level of the differentiation networks.

Like-named read-outs stand apart in the source and are kept apart here. Where a SMILES comes first, the peptide text is derived from it. The star is where a group is joined. Myristoyl = CCCCCCCCCCCCCC(=O)*

Regarding “Ile-Pro-Pro-Leu (IPPL) [tetrapeptide of WO 2010/071132 derived from fermented milk]”, the “collagen production by fibroblastes with regard to the control” value in the experiment on collagen (concentration of about 44 ppm) is listed as “about +10%”.

As to “Asn-Ile-Pro-Pro-Leu (NIPPL) [pentapeptide of WO 2010/071132 derived from fermented milk]”, the “collagen production by fibroblastes with regard to the control” value in the experiment with collagen (concentration of about 55 ppm) is listed as “about +30%”.

Take `CCCCCCCCCCCCCC(=O)N1CCC[C@H]1C(=O)N1CCC[C@H]1C(=O)N[C@@H](CC(C)C)C(=O)O` [Myr-PPL-OH, myristoyl-prolyl-prolyl-leucine] (Myristoyl-Pro-Pro-Leu-OH): the “Collagen IV % change/control” value with Collagen IV (1 ppm) was “+38%”; with Collagen IV (3 ppm), “+51%”; in the experiment on Collagen IV (5 ppm), “+83%”; in the experiment with Collagen IV (7 ppm), “+159%”. For the same compound, the Laminin % change/control result with Laminin (1 ppm) was “+29%”; in the experiment with Laminin (3 ppm) it was “+83%”; with Laminin (5 ppm) it was “+53%”; in the experiment with Laminin (7 ppm), “+41%”. For the same compound, the “Collagen I % change/control” value in the experiment on Collagen I [1] (3 ppm) is listed as “+68%”; in the experiment on Collagen I [1] (7 ppm), “+95%”; in the experiment with Collagen I [4] (1 ppm) it was “+34%”; in the experiment on Collagen I [4] (3 ppm) it was “+59%”; in the experiment with Collagen I [4] (5 ppm), “+87%”. Besides, the Elastin % change/control entry in the experiment on Elastin [2] (2 ppm) was “+183%”; in the experiment with Elastin [2] (3 ppm), “+259%”; in the experiment on Elastin [2] (7 ppm) it was “+145%”; with Elastin [3] (5 ppm), “+86%”; in the experiment with Elastin [3] (7 ppm), “+137%”. For the same compound, the results for the Fibronectin % change/control result in the experiment with Fibronectin (3 ppm), in the experiment on Fibronectin (5 ppm) and with Fibronectin (7 ppm) were “+73%”, “+41%” and “+66%”, respectively. Moreover, the “Ceramide 2 % variation” value with Ceramide 2 (2 ppm) is recorded as “+137 (nsd) %”; in the experiment with Ceramide 2 (4 ppm) it was “+240 (p < 0.01) %”; in the experiment on Ceramide 2 (6 ppm) it was “+268 (p < 0.01) %”. For the same compound, in the experiment with Ceramide 2 (setting [5]), the “ceramides in the human keratinocytes” value is on record as “increases”. The results for the “Neutral lipids % variation” value in the experiment on neutral lipids (4 ppm) and in the experiment on neutral lipids (6 ppm) were “+394 (p < 0.01) %” and “+570 (p < 0.01) %”, respectively. Also, in the experiment with neutral lipids (setting [5]), the “neutral lipids in the human keratinocytes” value was “increases”. Moreover, the figures for the “Filagrin 1 % variation” value with filaggrin 1 (2 ppm), with filaggrin 1 (4 ppm) and in the experiment on filaggrin 1 (6 ppm) were “+564 (p < 0.01) %”, “+840 (p < 0.01) %” and “+172 (p < 0.01) %”, respectively. For the same compound, the “filaggrin 1 in the human keratinocytes” value in the experiment on filaggrin 1 (setting [5]) was “increases”.
